The results in this text go back to patent publication US20260258025A1, “INHIBITORS OF TDP-43 AND TAU AGGREGATION” (Aquinnah Pharmaceuticals, inc., priority 2023, published 2026).

Where only a bound is given, the exact number is not on record here.

For this assay, the system named is tau stress granules. Kind of assay: SY5Y-tT1 tau arsenite assay (tau stress granules per cell). In kind it is cell-based. The conditions noted are these: SY5Y-tT1 cells, 2 hours compound, 90 minutes arsenite, 50% reduction of granules per cell, read-out: IC50, Inhibitor Activity of Tau Stress Granules. The procedure, abridged: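 SY5Y-tT1 cells were tetracycline-induced for 48 h, pretreated 2 h with serially diluted compounds (PERK inhibitor GSK2606414 as control), then exposed to arsenite for 90 min at 37° C. After fixation and Hoechst staining, tau stress granules per cell were imaged; IC50 is the concentration halving granules per cell.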

As to `Cc1cc(-c2ccc(C3CCN(C(C)C)CC3)cc2)sc1C(=O)N1CC[C@H](N)C1` [Compound 183, (S)-(3-aminopyrrolidin-1-yl)(5-(4-(1-isopropylpiperidin-4-yl)phenyl)-3-methylthiophen-2-yl)methanone], the IC50 was less than 500 nM.
